Values of other authors, collected in article PMC12181400, “Leveraging viral genome sequences and machine learning models for identification of potentially selective antiviral agents” (Communications Chemistry, 2025).
Where two headings read alike, the source gives them in different places.

Tests used:
Details in all cases: cited from earlier work
[1] = tested on: cell viability (tox21-car-agonist-p1)
[2] = tested on: cell viability (tox21-car-antagonist-p1)
[3] = tested on: cell viability (tox21-ap1-agonist-p1)
[4] = tested on: cell viability (tox21-ar-mda-kb2-luc-agonist-p3)
[5] = tested on: cell viability (tox21-are-bla-p1)
[6] = tested on: cell viability (tox21-ar-mda-kb2-luc-antagonist-p2)
[7] = curve rank −9 to 9, 0 = inactive, ref NCATS Tox21 public data browser

Row | SMILES | tox21-car-agonist-p1-viability (curve rank) [1] | tox21-car-antagonist-p1-viability (curve rank) [2] | tox21-ap1-agonist-p1-viability (curve rank) [3] | tox21-ar-mda-kb2-luc-agonist-p3-viability (curve rank) [4] | tox21-are-bla-p1-viability (curve rank) [5] | tox21-ar-mda-kb2-luc-antagonist-p2-viability (curve rank) [6] | tox21-car-agonist-p1-viability (curve rank) [1, 7] | tox21-car-antagonist-p1-viability (curve rank) [2, 7] | tox21-ap1-agonist-p1-viability (curve rank) [3, 7] | tox21-ar-mda-kb2-luc-agonist-p3-viability (curve rank) [4, 7] | tox21-are-bla-p1-viability (curve rank) [5, 7] | tox21-ar-mda-kb2-luc-antagonist-p2-viability (curve rank) [6, 7]
1 | CC(=O)N[C@@H](CC(C)C)C(=O)O [Acetyl-L-leucine] | 0 | 0 | 0 | 0 | 0 | 0 |  |  |  |  |  | 
2 | CSc1ccc(C(=O)c2[nH]c(=O)[nH]c2C)cc1 [Enoximone] | 0 | 0 | 0 | 0 | 0 | 0 |  |  |  |  |  | 
3 | C[C@H](O)C(=O)Nc1c(I)c(C(=O)NC(CO)CO)c(I)c(C(=O)NC(CO)CO)c1I [Iopamidol] | 0 | 0 | 0 | 0 | 0 | 0 |  |  |  |  |  | 
4 | Nc1ccccc1C(=O)O [Anthranilic acid] |  |  |  |  |  |  | 0 | 0 | 0 | 0 | 0 | 0
5 | Cc1ncsc1CCCl [Clomethiazole] |  |  |  |  |  |  | 0 | 0 | 0 | 0 | 0 | 0
6 | O=C1c2ccccc2S(=O)(=O)N1CCCCN1CCN(c2ncccn2)CC1 [Ipsapirone] | 0 | 0 | 0 | 0 | 0 | 0 |  |  |  |  |  | 
7 | CCOP(=S)(OCC)Oc1cc(C)nc(C(C)C)n1 [Diazinon] |  |  |  |  |  |  | 0 | 0 | 0 | 0 | 0 | 0
8 | CC[C@@H](CO)NC(=O)[C@@H]1C=C2c3cccc4c3c(cn4C)C[C@H]2N(C)C1 [Methysergide] |  |  |  |  |  |  | 0 | 0 | 0 | 0 | 0 | 0
9 | O=C1NS(=O)(=O)c2ccccc21 [Saccharin] | 0 | 0 | 0 | 0 | 0 | 0 |  |  |  |  |  | 
10 | NS(=O)(=O)c1cc2c(cc1Cl)N=C(CSCc1ccccc1)NS2(=O)=O [Benzthiazide] | 0 | 0 | 0 | 0 | 0 | 0 |  |  |  |  |  | 
11 | CC(O)Cn1cnc2c1c(=O)n(C)c(=O)n2C (stereo not drawn) [Proxyphylline] | 0 | 0 | 0 | 0 | 0 | 0 |  |  |  |  |  | 
12 | CC(C(=O)O)c1ccc(C(=O)c2ccccc2)s1 (stereo not drawn) [Tiaprofenic acid] | 0 | 0 | 0 | 0 | 0 | 0 |  |  |  |  |  | 
13 | Nc1cc(N2CCCCC2)nc(N)[n+]1[O-] [Minoxidil] | 0 | 0 | 0 | 0 | 0 | 0 |  |  |  |  |  | 
14 | Nc1nnc(-c2cccc(Cl)c2Cl)c(N)n1 [Lamotrigine] | -0.67 | 0 | 0 | 0 | 0 | 0 |  |  |  |  |  | 
15 | O=C(CCNNC(=O)c1ccncc1)NCc1ccccc1 [Nialamide] | 0 | 0 | 0 | 0 | 0 | 0 |  |  |  |  |  | 
